Results on two compounds are retold here after patent US4110327A, “2,3 Diketo-piperazinocarbonylamino alkanoic acids and derivatives” (Toyama Chemical Co., Ltd., priority 1974, dated 1978).

≈ marks a conversion by molar mass, not a printed value.

One experiment has as its system Proteus mirabilis. The experiment can be described thus: MIC against clinical isolates. The experiment is classed as cell-based. The settings on record: clinical isolate, unit assumed.
The test system of a further experiment is Proteus vulgaris. The experiment can be described thus: MIC against clinical isolates. The experiment is classed as cell-based. To be noted: clinical isolate, unit assumed.
A further experiment deals with Shigella flexneri. In words: MIC against clinical isolates. The experiment is classed as cell-based. The settings on record: unit assumed. As to the method: (§1) The minimum inhibitory concentrations (MIC) was determined by the plate method disclosed in "Chemotherapy" (Japan), Vol. 16, (1968), pages 98 - 99. The culture medium used was a Heart infusion agar (pH 7.4). The number of the cells per plate used in the inoculum as 10^4 (10^6 cells/ml).
(§2) MIC was determined in the same manner as in the preceding paragraph (1).

The next experiment relates to Shigella sonnei. The experiment can be described thus: MIC against clinical isolates. The experiment is classed as cell-based. The settings on record: unit assumed. As to the method:
as §1, §2

The test system of a further experiment is β-lactamase. In words: Resistant activity against β-lactamase, iodometric assay. The experiment is classed as biochemical, Pseudomonas aeruginosa GN 238. To be noted: relative to Potassium Penicillin G = 100. As to the method:
(3) Resistant activity against β-lactamase, Pseudomonas aergionan GN 238:
The resistant activity of each compound against β-lactamase was measured in the manner described below.
β-Lactamase was prepared from Pseudomonas aeruginosa GN 238. This microorganism was cultured in 100 ml of a medium containing 2 g of yeast extract, 10 g of polypeptone, 2 g of glucose, 7 g of disodium hydrogen phosphate, 2 g of potassium dihydrogen phosphate, 1.2 g of ammonium sulfate and 0.4 g of magnesium sulfate, per liter, in a 500-ml Erlenmeyer flask for 6 hrs. at 37° C with shaking. The resulting cells were collected by centrifugation (5,000 r.p.m. × 10 min.), washed three times with 0.1 M phosphate buffer (pH 7.0). Subsequently, the cells were subjected to sonication (20 KHz, 20 min.) and then centrifuged at 15,000 r.p.m. for 60 min. By using the supernatant of enzyme fluid, the resistance of each compound against β-lactamase was determined by the iodometric assay method. Each numeral shown in Table 7 is a relative activity value calculated by assuming as 100 the activity of the control Potassium Penicillin G.

Another experiment has as its system Salmonella typhi-murium. In words: MIC against clinical isolates. The experiment is classed as cell-based. The settings on record: unit assumed.
In experiment [1] the test system is Klebsiella pneumoniae. The experiment can be described thus: MIC against clinical isolates. The experiment is classed as cell-based. To be noted: unit assumed.
The next experiment relates to Proteus morganii. The experiment can be described thus: MIC against clinical isolates. The experiment is classed as cell-based. To be noted: clinical isolate, unit assumed.
The subject of a further experiment is Staphylococcus aureus. In words: MIC against clinical isolates. The settings on record: unit assumed. The experiment is classed as cell-based.
The next experiment deals with Escherichia coli. The experiment can be described thus: MIC against clinical isolates. The experiment is classed as cell-based. To be noted: unit assumed.
In another experiment the test system is Salmonella typhi. The experiment can be described thus: MIC against clinical isolates. The settings on record: unit assumed. The experiment is classed as cell-based.
In the next experiment the test system is Proteus vulgaris 3027. The experiment can be described thus: MIC against standard strain, plate method. The experiment is classed as cell-based. The settings on record: Proteus vulgaris 3027, standard strain; unit assumed. The method in brief: (§3)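 Heart infusion agar (pH 7.4) plates; inoculum 10^4 cells/plate (10^6 cells/ml suspension); MIC read by plate method.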

The subject of another experiment is Escherichia coli NIHJ. The experiment can be described thus: MIC against standard strain, plate method. The experiment is classed as cell-based. The settings on record: unit assumed. The method in brief:
as §3

Experiment [2] concerns Klebsiella pneumoniae. In words: MIC against standard strain, plate method. The experiment is classed as cell-based. The settings on record: unit assumed. The method in brief: as §3
The subject of experiment [3] is Staphylococcus aureus 209p. The experiment can be described thus: MIC against standard strain, plate method. To be noted: unit assumed. The experiment is classed as cell-based. The method, boiled down: as §3
In a further experiment the test system is Pseudomonas aeruginosa. In words: MIC against clinical isolates. The settings on record: unit assumed. The experiment is classed as cell-based.

Usually MIC stands for the lowest concentration found to suppress growth. High values mean a less susceptible organism, low ones a more susceptible organism. Consider `CC(C)N1CCN(C(=O)N[C@@H](C(=O)N[C@@H]2C(=O)N3[C@@H]2SC(C)(C)[C@@H]3C(=O)O)c2ccccc2)C(=O)C1=O` (single isomer, unassigned) [compound 40], for which the MIC with Proteus mirabilis was less than 0.4 µg/mL; with Proteus vulgaris, less than 0.4 µg/mL; against Shigella flexneri (clinical isolate JS 11215), 50 µg/mL (≈ 94.1 µM); with Shigella flexneri (clinical isolate JS 11839), 3.13 µg/mL (≈ 5.89 µM); in the experiment with Shigella sonnei (clinical isolate JS 11232), 50 µg/mL (≈ 94.1 µM); against Shigella sonnei (clinical isolate JS 11755), 3.13 µg/mL (≈ 5.89 µM). Moreover, the MIC with Salmonella typhi-murium (clinical isolate SL 858) was 6.25 µg/mL (≈ 11.8 µM); against Salmonella typhi-murium (clinical isolate SL 2136), greater than 200 µg/mL; with Klebsiella pneumoniae [1] (clinical isolate GN 3850) it was 12.5 µg/mL (≈ 23.5 µM); against Klebsiella pneumoniae [1] (clinical isolate GN 4081), 100 µg/mL (≈ 188 µM); in the experiment on Klebsiella pneumoniae [1] (clinical isolate GN 4117), 50 µg/mL (≈ 94.1 µM); in the experiment on Proteus morganii, 0.79 µg/mL (≈ 1.49 µM). Besides, the MIC is 3.13 µg/mL (≈ 5.89 µM) with Staphylococcus aureus (clinical isolate F-2); 0.79 µg/mL (≈ 1.49 µM) with Staphylococcus aureus (clinical isolate F-3); greater than 200 µg/mL in the experiment with Staphylococcus aureus (clinical isolate F-5); 3.13 µg/mL (≈ 5.89 µM) in the experiment on Staphylococcus aureus (clinical isolate MS 8588); 3.13 µg/mL (≈ 5.89 µM) against Staphylococcus aureus (clinical isolate MS 8596); 0.79 µg/mL (≈ 1.49 µM) against Staphylococcus aureus (clinical isolate MS 8619). The MIC in the experiment with Staphylococcus aureus (clinical isolate MS 8684) was 3.13 µg/mL (≈ 5.89 µM); against Staphylococcus aureus (clinical isolate MS 8713) it was 12.5 µg/mL (≈ 23.5 µM); against Escherichia coli (clinical isolate GN 3435), 0.79 µg/mL (≈ 1.49 µM); with Escherichia coli (clinical isolate GN 3465), 50 µg/mL (≈ 94.1 µM); in the experiment with Escherichia coli (clinical isolate GN 3611), greater than 200 µg/mL; in the experiment with Escherichia coli (clinical isolate K-2) it was 3.13 µg/mL (≈ 5.89 µM). For the same compound, the MIC was greater than 200 µg/mL with Escherichia coli (clinical isolate K-3); 0.79 µg/mL (≈ 1.49 µM) against Escherichia coli (clinical isolate K-4); 1.57 µg/mL (≈ 2.95 µM) in the experiment on Salmonella typhi (clinical isolate SL 819); 1.57 µg/mL (≈ 2.95 µM) against Salmonella typhi (clinical isolate SL 2169); 0.4 µg/mL (≈ 0.752 µM) against Proteus vulgaris 3027; less than 0.1 µg/mL in the experiment with Escherichia coli NIHJ. In addition, the MIC against Klebsiella pneumoniae [2] was 3.13 µg/mL (≈ 5.89 µM); in experiment [3], 0.4 µg/mL (≈ 0.752 µM); against Pseudomonas aeruginosa (clinical isolate GN 376), 3.13 µg/mL (≈ 5.89 µM); with Pseudomonas aeruginosa (clinical isolate GN 1035) it was 25 µg/mL (≈ 47 µM); in the experiment with Pseudomonas aeruginosa (clinical isolate GN 2565), 12.5 µg/mL (≈ 23.5 µM); in the experiment on Pseudomonas aeruginosa (clinical isolate GN 2987), 3.13 µg/mL (≈ 5.89 µM). The MIC with Pseudomonas aeruginosa (clinical isolate S-1) was 12.5 µg/mL (≈ 23.5 µM); against Pseudomonas aeruginosa (clinical isolate S-2) it was 25 µg/mL (≈ 47 µM); against Pseudomonas aeruginosa (clinical isolate S-3), 25 µg/mL (≈ 47 µM); in the experiment with Pseudomonas aeruginosa (clinical isolate S-4), 12.5 µg/mL (≈ 23.5 µM). The Relative activity with β-lactamase is 15%.

In the case of `CC1(C)S[C@@H]2[C@H](NC(=O)Cc3ccccc3)C(=O)N2[C@H]1C(=O)O` [Potassium Penicillin G, reference compound], the Relative activity with β-lactamase is recorded as 100%.
